Laboratory results from patent US11946059B2, “In vivo generation of water-soluble cannabinoids in plant cell suspension cultures” (Trait Biosciences Inc., priority 2017, dated 2024).

Assay: Cannabinoid stability in solution (time course incubation)
Assay type: physicochemical
Conditions: room temperature, shielded from light
Method: Rather, levels increased slightly in all treatments. The absence of any residual UGTs were cross-check and confirmed as the samples were purified by SPE, washed and eluted in 30% and 65%-100% ethanol, respectively.
Materials and Methods Example 19: Cannabinoid Stability in Solution.
The present inventors generated a stock solution of the CBD/CBDA+glycosides mixture in water which was further diluted 10× in all treatment solutions. A 10 mL starting volume was used for all treatments, and all treatments were prepared in triplicate. […] Each sample was incubated at room temperature. Samples were stored in 15 mL polypropylene centrifuge tubes. All samples were shielded from light—tubes were wrapped in aluminum foil. Each sample was prepared in triplicate in the following buffers: water only; pH=3; pH=4; pH=7; pH=8; water only+10 mM ascorbic acid; pH=3+10 mM ascorbic acid; pH=4+10 mM ascorbic acid; pH=7+10 mM ascorbic acid; and pH=8+10 mM ascorbic acid.

[1] = Water + AA (10 mM ascorbic acid)
[2] = pH = 3 + AA (10 mM ascorbic acid)
[3] = pH = 4 + AA (10 mM ascorbic acid)
[4] = pH = 7 + AA (10 mM ascorbic acid)
[5] = pH = 8 + AA (10 mM ascorbic acid)

## C=C(C)[C@@H]1CCC(C)=C[C@H]1c1c(O)cc(CCCCC)cc1O [CBD, cannabidiol, reference compound]
[1]
  Day 0 concentration in solution: 561.85 ± 86.83 µg/mL
  Day 1 concentration in solution: 428.63 ± 198.77 µg/mL
  Day 4 concentration in solution: 182.66 ± 25.03 µg/mL
  Day 5 concentration in solution: 448.64 ± 33.51 µg/mL
  Day 6 concentration in solution: 957.17 ± 315.70 µg/mL
  Day 7 concentration in solution: 592.44 ± 87.97 µg/mL
Water
  Day 0 concentration in solution: 399.81 ± 111.06 µg/mL
  Day 1 concentration in solution: 629.00 ± 383.79 µg/mL
  Day 4 concentration in solution: 432.54 ± 251.39 µg/mL
  Day 5 concentration in solution: 466.09 ± 130.53 µg/mL
  Day 6 concentration in solution: 179.13 ± 17.88 µg/mL
  Day 7 concentration in solution: 680.13 ± 229.24 µg/mL
[2]
  Day 0 concentration in solution: 565.75 ± 40.96 µg/mL
  Day 1 concentration in solution: 650.49 ± 12.10 µg/mL
  Day 4 concentration in solution: 232.39 ± 113.88 µg/mL
  Day 5 concentration in solution: 320.48 ± 92.87 µg/mL
  Day 6 concentration in solution: 801.14 ± 230.88 µg/mL
  Day 7 concentration in solution: 464.35 ± 105.43 µg/mL
pH = 3
  Day 0 concentration in solution: 568.71 ± 115.90 µg/mL
  Day 1 concentration in solution: 713.93 ± 41.47 µg/mL
  Day 4 concentration in solution: 191.94 ± 55.68 µg/mL
  Day 5 concentration in solution: 330.79 ± 138.28 µg/mL
  Day 6 concentration in solution: 607.98 ± 416.07 µg/mL
  Day 7 concentration in solution: 563.80 ± 65.50 µg/mL
[3]
  Day 0 concentration in solution: 524.40 ± 34.95 µg/mL
  Day 1 concentration in solution: 406.17 ± 210.69 µg/mL
  Day 4 concentration in solution: 305.20 ± 97.35 µg/mL
  Day 5 concentration in solution: 366.65 ± 92.35 µg/mL
  Day 6 concentration in solution: 777.26 ± 56.02 µg/mL
  Day 7 concentration in solution: 557.34 ± 60.39 µg/mL
pH = 4
  Day 0 concentration in solution: 505.97 ± 5.10 µg/mL
  Day 1 concentration in solution: 380.77 ± 233.10 µg/mL
  Day 4 concentration in solution: 278.33 ± 85.33 µg/mL
  Day 5 concentration in solution: 510.50 ± 76.06 µg/mL
  Day 6 concentration in solution: 897.52 ± 65.92 µg/mL
  Day 7 concentration in solution: 641.86 ± 33.49 µg/mL
[4]
  Day 0 concentration in solution: 500.03 ± 21.45 µg/mL
  Day 1 concentration in solution: 505.88 ± 276.58 µg/mL
  Day 4 concentration in solution: 398.16 ± 391.86 µg/mL
  Day 5 concentration in solution: 353.25 ± 135.11 µg/mL
  Day 6 concentration in solution: 828.02 ± 269.38 µg/mL
  Day 7 concentration in solution: 549.93 ± 39.69 µg/mL
pH = 7
  Day 0 concentration in solution: 528.04 ± 91.17 µg/mL
  Day 1 concentration in solution: 880.54 ± 5.87 µg/mL
  Day 4 concentration in solution: 539.55 ± 260.69 µg/mL
  Day 5 concentration in solution: 593.92 ± 6.30 µg/mL
  Day 6 concentration in solution: 1115.01 ± 169.64 µg/mL
  Day 7 concentration in solution: 544.28 ± 57.97 µg/mL
[5]
  Day 0 concentration in solution: 1136.36 ± 996.36 µg/mL
  Day 1 concentration in solution: 291.15 ± 78.65 µg/mL
  Day 4 concentration in solution: 173.43 ± 17.53 µg/mL
  Day 5 concentration in solution: 287.24 ± 39.56 µg/mL
  Day 6 concentration in solution: 847.26 ± 88.56 µg/mL
  Day 7 concentration in solution: 630.99 ± 2.44 µg/mL
pH = 8
  Day 0 concentration in solution: 513.35 ± 39.23 µg/mL
  Day 1 concentration in solution: 747.61 ± 101.87 µg/mL
  Day 4 concentration in solution: 560.90 ± 69.27 µg/mL
  Day 5 concentration in solution: 498.21 ± 92.88 µg/mL
  Day 6 concentration in solution: 911.61 ± 84.17 µg/mL
  Day 7 concentration in solution: 580.54 ± 94.41 µg/mL
